Data taken from patent US20090137550A1, “Novel Compounds” (Glaxo Group Limited, priority 2005, published 2009).
Blank lines part the entries; values can stand above or below the molecule they belong to.

Key:
[1] = test system: IL-6, IL-8, GM-CSF, RANTES and COX-2; settings: a number of different cell types; cited from earlier work
[2] = test system: fibronectin and thrombospondin; settings: Laping et al., 2002; cited from earlier work
[3] = test system: LPS-stimulated cytokine production (IL-1beta and/or TNFalpha); assay: LPS-Stimulated Cytokine Production in Human Whole Blood; format: cell-based; settings: 50 ng/ml LPS, 4 hour incubation, IL-1beta and/or TNFalpha by ELISA
Description: Assay: Test compound concentrations were prepared at 10× concentrations and LPS prepared at 1 ug/ml (final conc. of 50 ng/ml LPS) and added in 50 uL volumes to 1.5 mL eppendorf tubes. Heparinized human whole blood was obtained from healthy volunteers and was dispensed into eppendorf tubes or multiwell plates containing compounds and LPS in 0.2-0.4 mL volumes and the tubes incubated at 37 C. In some studies, compound was incubated with blood for up to 30 min prior to addition of LPS. Following a 4 hour incubation, the tubes or plates were centrifuged to remove cells and plasma was withdrawn and frozen at −80 C. Cytokine measurement: IL-Ibeta and/or TNFalpha were quantified using a standardized ELISA, or similar technology. Concentrations of IL-1beta or TNFalpha were determined from standard curves of the appropriate cytokine and IC50 values for test compound (concentration that inhibited 50% of LPS-stimulated cytokine production) were calculated by linear regression analysis.

[4] = test system: TNF-stimulated IL8 production by human neutrophils; assay: TNF-Stimulated IL-8 Production from Human Neutrophils; format: cell-based; settings: TNF 100 ng/ml, approximately 20 hrs, IL-8 by ELISA

SMILES: C[S+]([O-])c1ccc(-c2nc(-c3ccncc3)c(-c3ccc(F)cc3)[nH]2)cc1 (centres unmarked) [SB-203580]
- decreasing the synthesis of pro-inflammatory proteins including IL-6, IL-8, GM-CSF, RANTES and COX-2 [1]: effective

SMILES: COc1nccc(-c2c(-c3ccc(F)cc3)ncn2C2CCNCC2)n1 [SB-242235]
- inhibition of TGF-β-induced increases in fibronectin and thrombospondin [2]: inhibited

SMILES: Fc1ccc(-c2nc3n(c2-c2ccncc2)CCS3)cc1 [SK&F 86002]
- decreasing the synthesis of pro-inflammatory proteins including IL-6, IL-8, GM-CSF, RANTES and COX-2 [1]: effective

- IC50 (concentration that inhibited 50% of LPS-stimulated cytokine production) [3]: active
- IC50, TNF-stimulated IL-8 production [4]: active
SMILES: Cc1cc(F)ccc1-c1nc(NCCNC(N)=NC#N)nc2c1ccc(=O)n2-c1c(F)cccc1F [Example 10]
